Source: patent publication US9695155B2, “Herbicidal substituted pyrimidinyloxy benzene compounds” (E. I. DU PONT DE NEMOURS AND COMPANY, priority 2013, dated 2017)

Tests used:
Experiment in all cases: Test F preemergence
Conditions in all cases: 21 days, scale 0 to 100
johnsongrass = format: in vivo, Sorghum halepense
Excerpt: (§1) Seeds of plant species selected from bermudagrass (Cynodon dactylon), surinam grass (Brachiaria decumbens), large (Lg) crabgrass (Digitaria sanguinalis), crabgrass, naked (naked crabgrass, Digitaria nuda), foxtail, green (green foxtail, Setaria viridis), johnsongrass (Sorghum halepense), kochia (Kochia scoparia), morningglory (pitted morningglory, Ipomoea lacunosa), nutsedge, purple (purple nutsedge, Cyperus rotundus), ragweed (common ragweed, Ambrosia elatior), mustard, black (black mustard, Brassica nigra), guineagrass (Panicum maximum), dallisgrass (Paspalum dilatatum), barnyardgrass (Echinochloa crus-galli), sandbur (southern sandbur, Cenchrus echinatus), sowthistle (common sowthistle, Sonchus oleraceous), Italian ryegrass (Lolium multiflorum), signalgrass (broadleaf signalgrass, Brachiaria platyphylla), dayflower (Virginia (VA) dayflower, Commelina virginica), bluegrass (annual bluegrass, Poa annua), quackgrass (Elytrigia repens), mallow (common mallow, Malva sylvestris), buckwheat, wild (wild buckwheat, Polygonum convolvulus), leafy spurge (Euphorbia esula), chickweed (common chickweed, Stellaria media), wild poinsettia (Euphorbia heterophylla), and pigweed (Amaranthus retroflexus) were planted into a blend of loam soil and sand and treated preemergence with test chemicals formulated in a non-phytotoxic solvent mixture which included a surfactant.
(§2) Treated plants and controls were maintained in a greenhouse for 21 days, after which time all species were compared to controls and visually evaluated. Plant response ratings, summarized in Table F, are based on a scale of 0 to 100 where 0 is no effect and 100 is complete control. A dash (-) response means no test result.

bluegrass = format: in vivo, Poa annua
Excerpt: as §1, §2

[1] = system: morningglory (pitted morningglory); format: in vivo, Ipomoea lacunosa
Excerpt: as §1, §2

guineagrass = format: in vivo, Panicum maximum
Excerpt: as §1, §2

mustard, black = format: in vivo, Brassica nigra
Excerpt: as §1, §2

foxtail, green = format: in vivo, Setaria viridis
Excerpt: as §1, §2

barnyardgrass = format: in vivo, Echinochloa crus-galli
Excerpt: as §1, §2

ragweed = format: in vivo, Ambrosia elatior
Excerpt: as §1, §2

large (Lg) crabgrass = format: in vivo, Digitaria sanguinalis
Excerpt: as §1, §2

buckwheat, wild = format: in vivo, Polygonum convolvulus
Excerpt: as §1, §2

bermudagrass = format: in vivo, Cynodon dactylon
Excerpt: as §1, §2

pigweed = format: in vivo, Amaranthus retroflexus
Excerpt: as §1, §2

signalgrass = format: in vivo, Brachiaria platyphylla
Excerpt: as §1, §2

sandbur = format: in vivo, Cenchrus echinatus
Excerpt: as §1, §2

wild poinsettia = format: in vivo, Euphorbia heterophylla
Excerpt: as §1, §2

chickweed = format: in vivo, Stellaria media
Excerpt: as §1, §2

quackgrass = format: in vivo, Elytrigia repens
Excerpt: as §1, §2

leafy spurge = format: in vivo, Euphorbia esula
Excerpt: as §1, §2

crabgrass, naked = format: in vivo, Digitaria nuda
Excerpt: as §1, §2

Italian ryegrass = format: in vivo, Lolium multiflorum
Excerpt: as §1, §2

Compound: N#Cc1cccc(Oc2ncc(Cl)cn2)c1-n1cc(C(F)(F)F)cn1 [Compound 58, 3-[(5-chloro-2-pyrimidinyl)oxy]-2-[4-(trifluoromethyl)-1H-pyrazol-1-yl]benzonitrile]
- Plant response rating, Johnsongrass (johnsongrass; 16 g ai/ha): 65
- Plant response rating, Johnsongrass (johnsongrass; 31 g ai/ha): 98
- Plant response rating, Johnsongrass (johnsongrass; 62 g ai/ha): 100
- Plant response rating, Johnsongrass (johnsongrass; 125 g ai/ha): 100
- Plant response rating, Johnsongrass (johnsongrass; 250 g ai/ha): 100
- Plant response rating, Bluegrass (bluegrass; 16 g ai/ha): 50
- Plant response rating, Bluegrass (bluegrass; 31 g ai/ha): 80
- Plant response rating, Bluegrass (bluegrass; 62 g ai/ha): 98
- Plant response rating, Bluegrass (bluegrass; 125 g ai/ha): 98
- Plant response rating, Bluegrass (bluegrass; 250 g ai/ha): 100
- Plant response rating, Morningglory ([1]; 16 g ai/ha): 100
- Plant response rating, Morningglory ([1]; 31 g ai/ha): 98
- Plant response rating, Morningglory ([1]; 62 g ai/ha): 100
- Plant response rating, Morningglory ([1]; 125 g ai/ha): 100
- Plant response rating, Morningglory ([1]; 250 g ai/ha): 100
- Plant response rating, Guineagrass (guineagrass; 16 g ai/ha): 100
- Plant response rating, Guineagrass (guineagrass; 31 g ai/ha): 100
- Plant response rating, Guineagrass (guineagrass; 62 g ai/ha): 100
- Plant response rating, Guineagrass (guineagrass; 125 g ai/ha): 100
- Plant response rating, Guineagrass (guineagrass; 250 g ai/ha): 100
- Plant response rating, Mustard, Black (mustard, black; 16 g ai/ha): 100
- Plant response rating, Mustard, Black (mustard, black; 31 g ai/ha): 100
- Plant response rating, Mustard, Black (mustard, black; 62 g ai/ha): 100
- Plant response rating, Mustard, Black (mustard, black; 125 g ai/ha): 100
- Plant response rating, Mustard, Black (mustard, black; 250 g ai/ha): 100
- Plant response rating, Foxtail, Green (foxtail, green; 16 g ai/ha): 75
- Plant response rating, Foxtail, Green (foxtail, green; 31 g ai/ha): 100
- Plant response rating, Foxtail, Green (foxtail, green; 62 g ai/ha): 100
- Plant response rating, Foxtail, Green (foxtail, green; 125 g ai/ha): 100
- Plant response rating, Foxtail, Green (foxtail, green; 250 g ai/ha): 100
- Plant response rating, Barnyardgrass (barnyardgrass; 16 g ai/ha): 70
- Plant response rating, Barnyardgrass (barnyardgrass; 31 g ai/ha): 100
- Plant response rating, Barnyardgrass (barnyardgrass; 62 g ai/ha): 100
- Plant response rating, Barnyardgrass (barnyardgrass; 125 g ai/ha): 100
- Plant response rating, Barnyardgrass (barnyardgrass; 250 g ai/ha): 100
- Plant response rating, Ragweed (ragweed; 16 g ai/ha): 60
- Plant response rating, Ragweed (ragweed; 31 g ai/ha): 65
- Plant response rating, Ragweed (ragweed; 62 g ai/ha): 70
- Plant response rating, Ragweed (ragweed; 125 g ai/ha): 75
- Plant response rating, Ragweed (ragweed; 250 g ai/ha): 95
- Plant response rating, Crabgrass, Large (large (Lg) crabgrass; 16 g ai/ha): 100
- Plant response rating, Crabgrass, Large (large (Lg) crabgrass; 31 g ai/ha): 100
- Plant response rating, Crabgrass, Large (large (Lg) crabgrass; 62 g ai/ha): 100
- Plant response rating, Crabgrass, Large (large (Lg) crabgrass; 125 g ai/ha): 100
- Plant response rating, Crabgrass, Large (large (Lg) crabgrass; 250 g ai/ha): 100
- Plant response rating, Buckwheat, Wild (buckwheat, wild; 16 g ai/ha): 90
- Plant response rating, Buckwheat, Wild (buckwheat, wild; 31 g ai/ha): 100
- Plant response rating, Buckwheat, Wild (buckwheat, wild; 62 g ai/ha): 100
- Plant response rating, Buckwheat, Wild (buckwheat, wild; 125 g ai/ha): 100
- Plant response rating, Buckwheat, Wild (buckwheat, wild; 250 g ai/ha): 100
- Plant response rating, Bermudagrass (bermudagrass; 16 g ai/ha): 95
- Plant response rating, Bermudagrass (bermudagrass; 31 g ai/ha): 100
- Plant response rating, Bermudagrass (bermudagrass; 62 g ai/ha): 100
- Plant response rating, Bermudagrass (bermudagrass; 125 g ai/ha): 100
- Plant response rating, Bermudagrass (bermudagrass; 250 g ai/ha): 100
- Plant response rating, Pigweed (pigweed; 16 g ai/ha): 100
- Plant response rating, Pigweed (pigweed; 31 g ai/ha): 100
- Plant response rating, Pigweed (pigweed; 62 g ai/ha): 100
- Plant response rating, Pigweed (pigweed; 125 g ai/ha): 100
- Plant response rating, Pigweed (pigweed; 250 g ai/ha): 100
- Plant response rating, Signalgrass (signalgrass; 16 g ai/ha): 95
- Plant response rating, Signalgrass (signalgrass; 31 g ai/ha): 100
- Plant response rating, Signalgrass (signalgrass; 62 g ai/ha): 100
- Plant response rating, Signalgrass (signalgrass; 125 g ai/ha): 100
- Plant response rating, Signalgrass (signalgrass; 250 g ai/ha): 100
- Plant response rating, Sandbur (sandbur; 16 g ai/ha): 10
- Plant response rating, Sandbur (sandbur; 31 g ai/ha): 35
- Plant response rating, Sandbur (sandbur; 62 g ai/ha): 95
- Plant response rating, Sandbur (sandbur; 125 g ai/ha): 100
- Plant response rating, Sandbur (sandbur; 250 g ai/ha): 100
- Plant response rating, Poinsettia, Wild (wild poinsettia; 16 g ai/ha): 25
- Plant response rating, Poinsettia, Wild (wild poinsettia; 31 g ai/ha): 65
- Plant response rating, Poinsettia, Wild (wild poinsettia; 62 g ai/ha): 100
- Plant response rating, Poinsettia, Wild (wild poinsettia; 125 g ai/ha): 100
- Plant response rating, Poinsettia, Wild (wild poinsettia; 250 g ai/ha): 100
- Plant response rating, Chickweed (chickweed; 16 g ai/ha): 100
- Plant response rating, Chickweed (chickweed; 31 g ai/ha): 100
- Plant response rating, Chickweed (chickweed; 62 g ai/ha): 100
- Plant response rating, Chickweed (chickweed; 125 g ai/ha): 100
- Plant response rating, Chickweed (chickweed; 250 g ai/ha): 100
- Plant response rating, Quackgrass (quackgrass; 16 g ai/ha): 50
- Plant response rating, Quackgrass (quackgrass; 31 g ai/ha): 70
- Plant response rating, Quackgrass (quackgrass; 62 g ai/ha): 98
- Plant response rating, Quackgrass (quackgrass; 125 g ai/ha): 100
- Plant response rating, Quackgrass (quackgrass; 250 g ai/ha): 100
- Plant response rating, Leafy Spurge (leafy spurge; 16 g ai/ha): 100
- Plant response rating, Leafy Spurge (leafy spurge; 31 g ai/ha): 95
- Plant response rating, Leafy Spurge (leafy spurge; 62 g ai/ha): 100
- Plant response rating, Leafy Spurge (leafy spurge; 125 g ai/ha): 100
- Plant response rating, Leafy Spurge (leafy spurge; 250 g ai/ha): 100
- Plant response rating, Crabgrass, Naked (crabgrass, naked; 16 g ai/ha): 100
- Plant response rating, Crabgrass, Naked (crabgrass, naked; 31 g ai/ha): 100
- Plant response rating, Crabgrass, Naked (crabgrass, naked; 62 g ai/ha): 100
- Plant response rating, Crabgrass, Naked (crabgrass, naked; 125 g ai/ha): 100
- Plant response rating, Crabgrass, Naked (crabgrass, naked; 250 g ai/ha): 100
- Plant response rating, Ryegrass, Italian (Italian ryegrass; 16 g ai/ha): 35
- Plant response rating, Ryegrass, Italian (Italian ryegrass; 31 g ai/ha): 95
- Plant response rating, Ryegrass, Italian (Italian ryegrass; 62 g ai/ha): 98
- Plant response rating, Ryegrass, Italian (Italian ryegrass; 125 g ai/ha): 100
- Plant response rating, Ryegrass, Italian (Italian ryegrass; 250 g ai/ha): 100
